15 compounds from PubChem BioAssay AID248 (DTP/NCI, 2004) can be followed below.

Structures are written as SMILES. Values joined by “and” are separate entries in the source; they are usually repeats but may differ in a detail not shown here. Equal entries are not always repeated. Toxic doses and inconclusive results are not listed.

The assay has as its system L1210 leukemia ip in BDF1 mice, survival T/C. Put plainly: NCI In Vivo Anticancer Drug Screen. Data for tumor model L1210 Leukemia (intraperitoneal) in B6D2F1 (BDF1) mice. To be noted: endpoint: mean survival time, higher = longer survival. A digest of the protocol: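 Mice bearing the transplanted tumor received compound or vehicle. Survival of the treated group was divided by that of the vehicle-treated control group to give the ratio.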

The mark [1] stands for this setting: dose: 100.0 mg/kg/injection, schedule: Q04DX003 (ip), vehicle: saline.
[2] abbreviates: dose: 100.0 mg/kg/injection, schedule: Q01DX009 (ip), vehicle: saline with Tween-80.
Setting [3] is: dose: 200.0 mg/kg/injection, schedule: Q01DX009 (ip), vehicle: saline with Tween-80.
[4] abbreviates: dose: 100.0 mg/kg/injection, schedule: Q01DX001 (ip), vehicle: Klucel (hydroxypropylcellulose) (HPC).
The mark [5] stands for this setting: dose: 200.0 mg/kg/injection, schedule: Q01DX001 (ip), vehicle: Klucel (hydroxypropylcellulose) (HPC).
Where [6] appears, read: dose: 400.0 mg/kg/injection, schedule: Q01DX001 (ip), vehicle: Klucel (hydroxypropylcellulose) (HPC).
Setting [7] is: dose: 50.0 mg/kg/injection, schedule: Q04DX003 (ip), vehicle: saline.

On to `O=C1OCC2(CO)SC(c3ccccc3)NC12` (configuration not stated), for which the T/C under setting [1] is 98 % of control; the T/C (dose: 200.0 mg/kg/injection, schedule: Q04DX003 (ip), vehicle: saline) is 92 % of control; the T/C (dose: 400.0 mg/kg/injection, schedule: Q04DX003 (ip), vehicle: saline) was 98 % of control.

`Cc1nc(N)nc(N)c1Oc1ccc(Cl)cc1`: the T/C was 96 % of control (dose: 30.0 mg/kg/injection, schedule: Q01DX Z (ip), vehicle: saline); 98 % of control (dose: 60.0 mg/kg/injection, schedule: Q01DX Z (ip), vehicle: saline); 102 % of control (dose: 120.0 mg/kg/injection, schedule: Q01DX Z (ip), vehicle: saline).

Consider `O=C(NCCCl)NC(C1CC1)C1CC1`, for which the T/C is, setting by setting: under setting [2], 94 % of control; under setting [3], 94 % of control.

Turning to `O=C1c2ccccc2-c2c(O)cccc21`, the T/C under setting [4] is 94 % of control, the T/C under setting [5] is 100 % of control and the T/C under setting [6] is 96 % of control.

In the case of `CNC1CC2CCC1(C)C2(C)C` (configuration not stated), for the setting “dose: 100.0 mg/kg/injection, schedule: Q04DX002 (ip), vehicle: saline”, the T/C was 96 % of control.

`CC(Cc1ccccc1)NCCc1c2ccccc2nc2ccccc12` (configuration not stated): the T/C reads like this: (dose: 12.5 mg/kg/injection, schedule: Q01DX009 (ip), vehicle: Klucel (hydroxypropylcellulose) (HPC)) 101 % of control; (dose: 25.0 mg/kg/injection, schedule: Q01DX009 (ip), vehicle: Klucel (hydroxypropylcellulose) (HPC)) 102 % of control; (dose: 50.0 mg/kg/injection, schedule: Q01DX009 (ip), vehicle: Klucel (hydroxypropylcellulose) (HPC)) 98 % of control; (dose: 100.0 mg/kg/injection, schedule: Q01DX009 (ip), vehicle: Klucel (hydroxypropylcellulose) (HPC)) 104 % of control; (dose: 200.0 mg/kg/injection, schedule: Q01DX009 (ip), vehicle: Klucel (hydroxypropylcellulose) (HPC)) 91 % of control.

On to `O=C1CC2OCC=C3CN4CCC56c7ccccc7N1C5C2C3CC46` (configuration not stated) (tested in a mixture with another compound), for which the T/C reads like this: (dose: 0.12 mg/kg/injection, schedule: Q04DX003 (ip), vehicle: saline + Tween-80 + alkali) 102 % of control; (dose: 0.12 mg/kg/injection, schedule: Q04DX003 (ip), vehicle: saline) 104 % of control; (dose: 0.19 mg/kg/injection, schedule: Q04DX003 (ip), vehicle: alcohol) 106 % of control; (dose: 0.19 mg/kg/injection, schedule: Q04DX003 (ip), vehicle: saline + Tween-80 + alkali) 100 % of control; (dose: 0.19 mg/kg/injection, schedule: Q04DX003 (ip), vehicle: saline) 104 % of control; (dose: 0.25 mg/kg/injection, schedule: Q04DX003 (ip), vehicle: Klucel (hydroxypropylcellulose) (HPC)) 101 % of control. In addition, the T/C reads like this: (dose: 0.28 mg/kg/injection, schedule: Q04DX003 (ip), vehicle: saline + Tween-80 + alkali) 98 % of control; (dose: 0.28 mg/kg/injection, schedule: Q04DX003 (ip), vehicle: saline) 104 % of control; (dose: 0.39 mg/kg/injection, schedule: Q01DX009 (ip), vehicle: saline) 98 % of control and 95 % of control; (dose: 0.39 mg/kg/injection, schedule: Q04DX003 (ip), vehicle: alcohol) 103 % of control; (dose: 0.5 mg/kg/injection, schedule: Q04DX003 (ip), vehicle: Klucel (hydroxypropylcellulose) (HPC)) 93 % of control; (dose: 0.75 mg/kg/injection, schedule: Q01DX009 (ip), vehicle: Klucel (hydroxypropylcellulose) (HPC)) 92 % of control. Further, the T/C runs as follows: (dose: 0.78 mg/kg/injection, schedule: Q01DX009 (ip), vehicle: saline) 101 % of control and 110 % of control; (dose: 0.78 mg/kg/injection, schedule: Q04DX003 (ip), vehicle: alcohol) 103 % of control; (dose: 0.78 mg/kg/injection, schedule: Q04DX003 (ip), vehicle: saline + alcohol) 102 % of control; (dose: 0.78 mg/kg/injection, schedule: Q04DX003 (ip), vehicle: saline) 100 % of control; (dose: 1.0 mg/kg/injection, schedule: Q04DX003 (ip), vehicle: Klucel (hydroxypropylcellulose) (HPC)) 101 % of control; (dose: 1.5 mg/kg/injection, schedule: Q01DX009 (ip), vehicle: Klucel (hydroxypropylcellulose) (HPC)) 97 % of control. The T/C was 100 % of control (dose: 1.5 mg/kg/injection, schedule: Q04DX003 (ip), vehicle: Klucel (hydroxypropylcellulose) (HPC)); 90 % of control and 100 % of control (dose: 1.56 mg/kg/injection, schedule: Q01DX009 (ip), vehicle: saline); 93 % of control (dose: 1.56 mg/kg/injection, schedule: Q04DX003 (ip), vehicle: alcohol); 93 % of control (dose: 1.56 mg/kg/injection, schedule: Q04DX003 (ip), vehicle: saline + alcohol); 93 % of control (dose: 1.56 mg/kg/injection, schedule: Q04DX003 (ip), vehicle: saline); 110 % of control (dose: 6.0 mg/kg/injection, schedule: Q04DX003 (ip), vehicle: Klucel (hydroxypropylcellulose) (HPC)).

Turning to `NC(c1ccccc1)C(N)c1ccccc1` (configuration not stated), the T/C by setting is: (dose: 50.0 mg/kg/injection, schedule: Q01DX009 (ip), vehicle: saline with Tween-80) 104 % of control; under setting [2], 102 % of control and 92 % of control; (dose: 100.0 mg/kg/injection, schedule: Q04DX003 (ip), vehicle: other) 91 % of control; (dose: 100.0 mg/kg/injection, schedule: Q04DX003 (ip), vehicle: saline with Tween-80) 98 % of control; under setting [3], 95 % of control and 110 % of control; (dose: 200.0 mg/kg/injection, schedule: Q04DX003 (ip), vehicle: saline with Tween-80) 96 % of control. Also, the T/C (dose: 400.0 mg/kg/injection, schedule: Q01DX009 (ip), vehicle: saline with Tween-80) is 98 % of control.

In the case of `N=c1c2cnn(C3OC(CO)C(O)C3O)c2ncn1N` (configuration not stated), the T/C was 112 % of control (dose: 6.25 mg/kg/injection, schedule: Q01DX009 (ip), vehicle: water) and 121 % of control (dose: 12.5 mg/kg/injection, schedule: Q01DX009 (ip), vehicle: water).

Take `CC(=O)C12CC3CC1C2C3`: the T/C was 106 % of control (dose: 75.0 mg/kg/injection, schedule: Q04DX003 (ip), vehicle: saline); 102 % of control (dose: 150.0 mg/kg/injection, schedule: Q04DX003 (ip), vehicle: saline); 101 % of control (dose: 300.0 mg/kg/injection, schedule: Q04DX003 (ip), vehicle: saline).

As to `CCN(CC)CCNc1ncnc2[nH]ncc12`, the T/C by setting is: (dose: 25.0 mg/kg/injection, schedule: Q04DX003 (ip), vehicle: saline) 89 % of control; under setting [7], 86 % of control; under setting [1], 103 % of control and 89 % of control.

On to `CCC1c2ccc3cc(OC)ccc3c2C(=O)CC1C(=O)O` (configuration not stated), for which the T/C is, setting by setting: (dose: 100.0 mg/kg/injection, schedule: Q01DX009 (sc), vehicle: steriod suspending solution) 102 % of control; (dose: 100.0 mg/kg/injection, schedule: Q04DX003 (sc), vehicle: steriod suspending solution) 104 % of control; (dose: 200.0 mg/kg/injection, schedule: Q01DX009 (sc), vehicle: steriod suspending solution) 96 % of control; (dose: 200.0 mg/kg/injection, schedule: Q04DX003 (sc), vehicle: steriod suspending solution) 98 % of control; (dose: 400.0 mg/kg/injection, schedule: Q01DX009 (sc), vehicle: steriod suspending solution) 106 % of control; (dose: 400.0 mg/kg/injection, schedule: Q04DX003 (sc), vehicle: steriod suspending solution) 105 % of control.

With `OCCNCc1ccc2ccccc2c1`, where the note is “dose: 150.0 mg/kg/injection, schedule: Q01DX015 (ip), vehicle: saline”, the T/C is 90 % of control.

With `CC(CO)CCC(=O)C(C)C1C(=O)CC2CC3CC(O)CCC3(C)CC21C` (configuration not stated), the T/C by setting is: under setting [4], 98 % of control; under setting [5], 105 % of control; under setting [6], 119 % of control.

On to `COCCOCCN1CCN(CCCN2c3ccccc3Sc3ccc(C(F)(F)F)cc32)CC1`, for which the T/C is, setting by setting: (dose: 4.37 mg/kg/injection, schedule: Q04DX003 (ip), vehicle: saline) 115 % of control; (dose: 6.25 mg/kg/injection, schedule: Q04DX003 (ip), vehicle: saline) 107 % of control; (dose: 8.75 mg/kg/injection, schedule: Q04DX003 (ip), vehicle: saline) 121 % of control; (dose: 12.5 mg/kg/injection, schedule: Q04DX003 (ip), vehicle: saline) 110 % of control; (dose: 17.5 mg/kg/injection, schedule: Q04DX003 (ip), vehicle: saline) 86 % of control; under setting [7], 151 % of control.
